Paper PMC3678123 (Bioorganic & medicinal chemistry letters, 2013)
“Also recorded” adds a separate entry of the source.

test system: DAAO; experiment: not given; conditions: cited from earlier work

Row | Compound | IC50
1 | O=c1oc2ccccc2cc1O [2b, 3-hydroxychromen-2-one] | 0.44 µM
2 | O=C(O)c1ccc[nH]1 [5a, pyrrole-2-carboxylic acid] | < 10 µM
3 | O=C(O)c1cc[nH]n1 [5b, 1H-pyrazole-3-carboxylic acid] | < 100 µM
4 | O=C(O)c1cc(CCc2ccccc2)c[nH]1 [5c] | < 1 µM
5 | O=C(O)c1cc(CCc2ccccc2)[nH]n1 [5d] | < 1 µM
6 | Oc1noc2cc(Cl)ccc12 [compound 1, 6-chlorobenzo[d]isoxazol-3-ol] | 0.188 µM
7 | O=c1[nH]c2c(F)cc(F)cc2n1O [compound 3, 4,6-Difluoro-1-hydroxy-1Hbenzo[d]imidazol-2(3H)-one] | 0.08 µM

target: recombinant human DAAO (Homo sapiens, UniProt P14920); experiment: Inhibition of recombinant human DAAO; type: biochemical; conditions: qualitative statement
Sequence (P14920 whole entry): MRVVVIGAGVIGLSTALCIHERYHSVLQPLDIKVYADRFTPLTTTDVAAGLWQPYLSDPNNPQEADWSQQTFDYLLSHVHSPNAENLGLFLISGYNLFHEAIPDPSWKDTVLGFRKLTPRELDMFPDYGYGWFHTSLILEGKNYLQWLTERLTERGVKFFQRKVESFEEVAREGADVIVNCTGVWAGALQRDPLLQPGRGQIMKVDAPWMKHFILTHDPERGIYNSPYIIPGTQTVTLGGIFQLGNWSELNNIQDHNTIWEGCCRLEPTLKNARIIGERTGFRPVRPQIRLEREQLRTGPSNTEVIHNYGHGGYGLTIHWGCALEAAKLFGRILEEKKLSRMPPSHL

Row | Compound | DAAO inhibitory potency (in words)
8 | COc1coc(CO)cc1=O [6b] | complete loss of potency; also recorded: completely devoid of any inhibitory activity
9 | COCc1cc(=O)c(O)co1 [9a] | significantly less potent than kojic acid
10 | CCOCc1cc(=O)c(O)co1 [9b] | significantly less potent than kojic acid
11 | O=c1cc(COc2ccccc2)occ1O [9c] | potency comparable or superior to that of kojic acid
12 | O=c1cc(COCc2ccccc2)occ1O [9j] | dramatic loss of potency
13 | O=c1cc(COC2CCCCO2)occ1O (stereo not drawn) [9k] | significantly less potent than kojic acid
14 | O=c1cc(CCc2ccccc2)occ1O [compound 17, 5-hydroxy-2-phenethyl-4H-pyran-4-one] | slightly more potent than the ether counterpart 9c
15 | O=c1ccn(CCc2ccccc2)cc1O [compound 19, 3-hydroxy-1-phenethyl-4(1H)-pyridinone] | no inhibitory activity
